Laboratory results as given in patent US9340577B2, “HLA binding motifs and peptides and their uses” (priority 1992, dated 2016).
Where two headings read alike, the source gives them in different places. No end group written: not given here.

Key:
Assay in all cases: biochemical
Type in all cases: binding
HLA-A1 (A*0101) = HLA-A1 (A*0101) (Homo sapiens, UniProt P04439, A114D/A174V/A182V/D101N/D185E/E176A/E190D/L180R/Q94H/R68K/S129P/T187R/V100A/V91M/W191G)
A*2902 [1] = target: T1, A*2902 (Homo sapiens, UniProt P04439, A270S/D101N/D185E/E176V/E277Q/E87Q/F33T/G231S/H175R/I121M/I218V/I322F/K168Q/L300P/L318F/M331R/P208A/P217A/Q86L/T323A/T345S/V100A/V358M)
A*3002 [2] = target: T2, A*3002 (Homo sapiens, UniProt P04439, D101N/D140H/D185E/E176R/F33S/G80R/H175R/K168Q/Q94H/R138E/R41S/V100E)
HLA-A3.2 (A*0301) = HLA-A3.2 (A*0301) (Homo sapiens, UniProt P04439)
HLA-A11 (A*1101) = HLA-A11 (A*1101) (Homo sapiens, UniProt P04439, A114D/D185E/E176A/F33Y/L180Q/S129P/T187R)
A31 (A*3101) = A31 (A*3101) (Homo sapiens, UniProt P04439, A270S/D185E/E176V/E277Q/F33T/G231S/G80R/H175R/I121M/I218V/I322F/K168Q/L300P/L318F/M331R/P217A/Q94H/R138Q/T323A/T345S/T97I/V358M)
A*3301 = A*3301 (Homo sapiens, UniProt P04439, A270S/D185E/E176V/E277Q/E87N/F33T/G231S/H175R/I121M/I218V/I322F/K168Q/K210R/L300P/L318F/M331R/P217A/Q86R/Q94H/R138Q/T323A/T345S/T97I/V358M/Y195H)
A*6801 = A*6801 (Homo sapiens, UniProt P04439, A269V/D185E/E176V/E277Q/E87N/F33Y/G231S/I121M/I166T/I218V/L180W/L300P/L318F/N151K/P208A/P217A/Q86R/R169H/T345S)
A*2601 = A*2601 (Homo sapiens, UniProt P04439, A114D/A173T/A270S/D101N/D185E/E277Q/E87N/F33Y/G231S/I121R/I218V/K168Q/L180W/L300P/L318F/P208A/P217A/Q86R/Q94H/R138Q/S129P/T187R/T323A/T345S/V100A/V358M)
A*2902 [3] = target: T1, A*2902; remark: listed apart in the source
A*3002 [4] = target: T2, A*3002; remark: listed apart in the source

T2 sequence (P04439 whole entry, looked up, the tested form may be a part, stated change not applied): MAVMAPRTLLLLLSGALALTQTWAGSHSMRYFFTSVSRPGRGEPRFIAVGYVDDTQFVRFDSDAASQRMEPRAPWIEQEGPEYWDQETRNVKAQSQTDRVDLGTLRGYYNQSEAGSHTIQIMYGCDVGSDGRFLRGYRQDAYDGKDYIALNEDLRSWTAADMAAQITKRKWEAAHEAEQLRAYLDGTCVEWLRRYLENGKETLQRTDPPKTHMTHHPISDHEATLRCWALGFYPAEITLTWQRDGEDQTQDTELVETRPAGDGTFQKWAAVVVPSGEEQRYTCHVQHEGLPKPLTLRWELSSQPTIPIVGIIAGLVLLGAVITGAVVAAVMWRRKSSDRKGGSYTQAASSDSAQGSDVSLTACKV

Sequence | IC50 (HLA-A1 (A*0101)) | IC50 (A*2601) | IC50 (A*2902 [3]) | IC50 (A*3002 [4]) | also measured
AFTDLTIVY [Peptide 78.0348] | 31 nM |  |  |  | IC50 (A*2902 [1]): 36 nM; IC50 (A*3002 [2]): 71 nM
ATLERTEVY [Peptide 78.0252] | 656 nM |  |  |  | IC50 (A*2902 [1]): 557 nM; IC50 (A*3002 [2]): 26 nM
ELDPVDLLCY [Peptide 78.0017] | 26 nM |  |  |  | IC50 (A*3002 [2]): 12700 nM
ESNSLKCLRY [Peptide 1580.26] | 359 nM |  |  |  | IC50 (A*2902 [1]): 7510 nM; IC50 (A*3002 [2]): 604 nM
EYRHYNYSVY [Peptide 78.0180] | > 20000 nM |  |  |  | IC50 (A*2902 [1]): 16000 nM; IC50 (A*3002 [2]): 253 nM
EYRHYQYSLY [Peptide 78.0183] | 2270 nM |  |  |  | IC50 (A*2902 [1]): 2370 nM; IC50 (A*3002 [2]): 130 nM
FYSKVRKYRY [Peptide 78.0176] | > 20000 nM |  |  |  | IC50 (A*2902 [1]): 146 nM; IC50 (A*3002 [2]): 326 nM
GNEKTYFKY [Peptide 86.0160] | 2300 nM |  |  |  | IC50 (A*2902 [1]): 319 nM; IC50 (A*3002 [2]): 739 nM
ISEYRHYQY [Peptide 78.0254] | 46 nM |  |  |  | IC50 (A*2902 [1]): 853 nM; IC50 (A*3002 [2]): 81 nM
KFYSKISEY [Peptide 78.0363] | > 20000 nM |  |  |  | IC50 (A*2902 [1]): 1590 nM; IC50 (A*3002 [2]): 9.5 nM
KLNWASQIY [Peptide 1595.09] | 11300 nM | > 20000 nM | 108 nM | 2.9 nM | IC50 (HLA-A3.2 (A*0301)): 63 nM; IC50 (HLA-A11 (A*1101)): 950 nM; IC50 (A31 (A*3101)): > 20000 nM; IC50 (A*3301): > 20000 nM; IC50 (A*6801): > 20000 nM
KQNPDIVIY [Peptide 1595.10] | > 20000 nM | > 20000 nM | > 20000 nM | 7.4 nM | IC50 (HLA-A3.2 (A*0301)): 3800 nM; IC50 (A31 (A*3101)): 4550 nM; IC50 (A*3301): > 20000 nM; IC50 (A*6801): > 20000 nM
LFTDLRIVY [Peptide 78.0378] |  |  |  |  | IC50 (A*2902 [1]): 12 nM; IC50 (A*3002 [2]): 89 nM
LSDISEYRHY [Peptide 1549.45] | 27 nM |  |  |  | IC50 (A*2902 [1]): 14500 nM
LSEMIQWAY [Peptide 1580.17] | 1.5 nM | > 20000 nM | 187 nM | 77 nM | 
LTDDSDIAYY [Peptide 1580.12] | 6.4 nM | 738 nM | 3980 nM | 293 nM | 
LTDQLIHLY [Peptide 9018.0026] | 0.53 nM | 432 nM | 178 nM | 2.6 nM | 
LYDQLIHLY [Peptide 9018.0028] | 177 nM | 69 nM | 249 nM | 21 nM | 
LYDQLIHMYY [Peptide 9018.0031] | 191 nM | 4370 nM | 131 nM | 38 nM | 
LYPEPTDLY [Peptide 78.0354] | > 20000 nM |  |  |  | IC50 (A*3002 [2]): 1470 nM

Sequence | IC50 (HLA-A1 (A*0101)) | IC50 (A*2601) | IC50 (A*2902 [3]) | IC50 (A*3002 [4]) | also measured
MLETLNNTEY [Peptide 1580.24] | 36 nM |  |  |  | IC50 (A*3002 [2]): 1120 nM
MRDNWRSELY [Peptide 9015.0155] | > 20000 nM | > 20000 nM | 6800 nM | 73 nM | 
MSMSQWIKY [Peptide 1580.05] | 229 nM | 158 nM | 7.7 nM | 1.8 nM | 
NSDVKHHMY [Peptide 9018.0010] | 3.2 nM | 8990 nM | 193 nM | 70 nM | 
NSLVKHHMY [Peptide 9015.0033] | 2030 nM | > 20000 nM | 326 nM | 451 nM | 
NTDILTVTY [Peptide 1593.17] | 22 nM |  |  |  | IC50 (A*3002 [2]): 2000 nM
NTLVKHHMY [Peptide 9018.0009] | 363 nM | 7370 nM | 45 nM | 69 nM | 
NTPPLVKLWY [Peptide 9015.0170] | 18400 nM | 199 nM | 2650 nM | 9350 nM | 
QAEQATSNYY [Peptide 78.0022] |  |  |  |  | IC50 (A*2902 [1]): > 20000 nM; IC50 (A*3002 [2]): 1440 nM
QTDYYGLYY [Peptide 1593.06] | 1.3 nM | 122 nM | 38 nM | 674 nM | 
QTRVLAIERY [Peptide 9015.0156] | 6420 nM | 3310 nM | 4180 nM | 67 nM | 
RFALNPGLL [Peptide 1605.01] | > 20000 nM | > 20000 nM | > 20000 nM | 98 nM | 
RFHSIAGQY [Peptide 78.0376] | > 20000 nM |  |  |  | IC50 (A*3002 [2]): 1 nM
RTKNPEIVIY [Peptide 9015.0164] | > 20000 nM | > 20000 nM | > 20000 nM | 12 nM | 
RYSTQVDPGY [Peptide 9018.0039] | 12200 nM | > 20000 nM | > 20000 nM | 40 nM | 
SFEPIPIHY [Peptide 9015.0001] | > 20000 nM | 953 nM | 9.4 nM | 191 nM | 
SIDWRLRRY [Peptide 9018.0020] | 986 nM | 624 nM | 3310 nM | 27 nM | 
SIDWRQRRY [Peptide 9018.0018] | 43 nM | 236 nM | 561 nM | 3.5 nM | 
SIEWRLRRY [Peptide 9015.0035] | 5230 nM | 164 nM | 13100 nM | 265 nM | 
SSDAALYWY [Peptide 1593.08] | 34 nM | > 20000 nM | 1970 nM | 799 nM | 

Sequence | IC50 (HLA-A1 (A*0101)) | IC50 (A*2601) | IC50 (A*2902 [3]) | IC50 (A*3002 [4]) | also measured
STDAALYWY [Peptide 1593.02] | 2.6 nM | 24 nM | 26 nM | 68 nM | 
STEWRLRRY [Peptide 9018.0019] | 52 nM | 320 nM | 271 nM | 6.6 nM | 
TWETWWTDY [Peptide 9015.0019] | > 20000 nM | 3300 nM | 137 nM | 6310 nM | 
VSDEWRLRRY [Peptide 9018.0016] | 62 nM | 4320 nM | 2580 nM | 47 nM | 
VSDRANGWFY [Peptide 9018.0012] | 4.3 nM | 191 nM | 932 nM | 18 nM | 
VSIEWRLRRY [Peptide 9015.0181] | 4630 nM | 363 nM | 2490 nM | 55 nM | 
VSIEWRQRRY [Peptide 9015.0182] | 7930 nM | 1990 nM | 13900 nM | 65 nM | 
VSRDAKGWFY [Peptide 9018.0014] | 14 nM | 64 nM | 17 nM | 3.4 nM | 
VSRRAKGWFY [Peptide 9015.0178] | 273 nM | > 20000 nM | 11900 nM | 40 nM | 
VTIEWRLRRY [Peptide 9018.0015] | 19 nM | 33 nM | 123 nM | 3.5 nM | 
VTRRAKGWFY [Peptide 9018.0013] | 1.5 nM | 15 nM | 21 nM | 3.3 nM | 
VWDIVYIEY [Peptide 9018.0040] | 91 nM | 336 nM | 540 nM | 472 nM | 
WKSLVKHHMY [Peptide 9015.0177] | > 20000 nM | > 20000 nM | > 20000 nM | 148 nM | 
YSDREIIY [Peptide 9012.0096] | 93 nM |  |  |  | IC50 (A*2902 [1]): > 20000 nM
YSKVSEFRWY [Peptide 78.0009] | 539 nM |  |  |  | IC50 (A*2902 [1]): 4510 nM
YSRIRELRY [Peptide 78.0253] | 308 nM |  |  |  | IC50 (A*2902 [1]): 6280 nM
YTDGPGTRY [Peptide 9018.0002] | 0.39 nM | 28 nM | 65 nM | 63 nM | 
YTDGPGVRY [Peptide 9018.0003] | 2.1 nM | 152 nM | 39 nM | 45 nM | 
